The text below walks through data of ChEMBL document CHEMBL1140121, “X-ray crystal structure of human heme oxygenase-1 in complex with 1-(adamantan-1-yl)-2-(1H-imidazol-1-yl)ethanone: a common binding mode for imidazole-based heme oxygenase-1 inhibitors” (J Med Chem, 2008).

In test [1] the target is T1, Heme oxygenase 1 (Homo sapiens) (UniProt P09601).
T1 sequence (whole entry): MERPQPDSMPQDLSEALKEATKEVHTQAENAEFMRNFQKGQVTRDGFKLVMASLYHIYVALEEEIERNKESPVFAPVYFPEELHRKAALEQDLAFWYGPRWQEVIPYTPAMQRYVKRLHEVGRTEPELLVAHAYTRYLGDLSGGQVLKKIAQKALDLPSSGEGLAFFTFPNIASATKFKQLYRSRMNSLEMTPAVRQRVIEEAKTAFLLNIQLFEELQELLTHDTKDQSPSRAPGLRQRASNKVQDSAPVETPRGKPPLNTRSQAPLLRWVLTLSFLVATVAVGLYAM
Description: Residual activity of human recombinant HO1 expressed in Escherichia coli DH5alpha assessed as remaining heme at 25 uM by spectrophotometry in absence of L-ascorbic acid relative to control.

For test [2], the target named is T1, Heme oxygenase 1 (Homo sapiens). Description: Residual activity of human recombinant HO1 expressed in Escherichia coli DH5alpha assessed as remaining heme at 50 uM by spectrophotometry in absence of L-ascorbic acid relative to control.
Test [3] has the same target. In words: Inhibition of human recombinant HO1 expressed in Escherichia coli DH5alpha assessed as heme degradation at 25 uM by spectrophotometry in presence of L-ascorbic acid relative to control. Also noted: scale not given: the % may be the effect or the level left.
Test [4] has the same target. In words: Inhibition of human recombinant HO1 expressed in Escherichia coli DH5alpha assessed as heme degradation at 10 uM by spectrophotometry in presence of L-ascorbic acid relative to control.

Turning to `O=C(Cn1ccnc1)C12CC3CC(CC(C3)C1)C2`, the values for the residual activity in test [1] and in test [2] were 44% and 54%, respectively.
In the case of `Clc1ccc(CCC2(Cn3ccnc3)OCCO2)cc1`, the results for the residual activity in test [1] and in test [2] were 65% and 80%, respectively. For the same molecule, the Activity in test [3] came to 15%. In test [4], the inhibition was found to be 39%.
